Results published in ChEMBL document CHEMBL1132821, “2,4,5-Trisubstituted imidazoles: novel nontoxic modulators of P-glycoprotein mediated multidrug resistance. Part 1” (Bioorg Med Chem Lett, 2000).

Key:
[1] = target: ATP-dependent translocase ABCB1 (Homo sapiens, UniProt P08183); test: Evaluated for inhibition of growth of CEM/VLB1000 cell line using multidrug resistance (MDR) potentiation assay
NCI/ADR-RES [2] = test: Compound (1 uM) was evaluated for the inhibition of cell growth in MCF-7/ADR* cell line (over expresses Pgp and is for Doxorubicin resistant) in the presence of vinblastine; type: functional; details: Homo sapiens, read-out: ED50 (the source's name)
MES-SA/Dx5 [3] = test: Compound (1 uM) was evaluated for the inhibition of cell growth in MES-SA/DX5** cell line (over expresses Pgp and is for Doxorubicin resistant) in the presence of taxol; type: functional; details: Homo sapiens, read-out: ED50 (the source's name)
NCI/ADR-RES [4] = test: Compound (1 uM) was evaluated for the inhibition of cell growth in MCF-7/ADR* cell line (over expresses Pgp and is for Doxorubicin resistant) in the presence of Taxol; type: functional; details: Homo sapiens, read-out: ED50 (the source's name)
MES-SA/Dx5 [5] = test: Compound (1 uM) was evaluated for the inhibition of cell growth in MES-SA/DX5** cell line (over expresses Pgp and is for Doxorubicin resistant) in the presence of doxorubicin; type: functional; details: Homo sapiens, read-out: ED50 (the source's name)
NCI/ADR-RES [6] = test: Compound (1 uM) was evaluated for the inhibition of cell growth in MCF-7/ADR cell line (over expresses Pgp and is for Doxorubicin resistant) in the presence of Taxol; type: functional; details: Homo sapiens, read-out: ED50 (the source's name)
NCI/ADR-RES [7] = test: Compound (1 uM) was evaluated for the inhibition of cell growth in MCF-7/ADR cell line (over expresses Pgp and is for Doxorubicin resistant) in the presence of vinblastine; type: functional; details: Homo sapiens, read-out: ED50 (the source's name)
MES-SA/Dx5 [8] = test: Compound (1 uM) was evaluated for the inhibition of cell growth in MES-SA/DX5 cell line (over expresses Pgp and is Doxorubicin resistant) in the presence of doxorubicin; type: functional; details: Homo sapiens, read-out: ED50 (the source's name)
MES-SA/Dx5 [9] = test: Compound (1 uM) was evaluated for the inhibition of cell growth in MES-SA/DX5 cell line (over expresses Pgp and is for Doxorubicin resistant) in the presence of taxol; type: functional; details: Homo sapiens, read-out: ED50 (the source's name)

ATP-dependent translocase ABCB1, sequence (P08183 whole entry): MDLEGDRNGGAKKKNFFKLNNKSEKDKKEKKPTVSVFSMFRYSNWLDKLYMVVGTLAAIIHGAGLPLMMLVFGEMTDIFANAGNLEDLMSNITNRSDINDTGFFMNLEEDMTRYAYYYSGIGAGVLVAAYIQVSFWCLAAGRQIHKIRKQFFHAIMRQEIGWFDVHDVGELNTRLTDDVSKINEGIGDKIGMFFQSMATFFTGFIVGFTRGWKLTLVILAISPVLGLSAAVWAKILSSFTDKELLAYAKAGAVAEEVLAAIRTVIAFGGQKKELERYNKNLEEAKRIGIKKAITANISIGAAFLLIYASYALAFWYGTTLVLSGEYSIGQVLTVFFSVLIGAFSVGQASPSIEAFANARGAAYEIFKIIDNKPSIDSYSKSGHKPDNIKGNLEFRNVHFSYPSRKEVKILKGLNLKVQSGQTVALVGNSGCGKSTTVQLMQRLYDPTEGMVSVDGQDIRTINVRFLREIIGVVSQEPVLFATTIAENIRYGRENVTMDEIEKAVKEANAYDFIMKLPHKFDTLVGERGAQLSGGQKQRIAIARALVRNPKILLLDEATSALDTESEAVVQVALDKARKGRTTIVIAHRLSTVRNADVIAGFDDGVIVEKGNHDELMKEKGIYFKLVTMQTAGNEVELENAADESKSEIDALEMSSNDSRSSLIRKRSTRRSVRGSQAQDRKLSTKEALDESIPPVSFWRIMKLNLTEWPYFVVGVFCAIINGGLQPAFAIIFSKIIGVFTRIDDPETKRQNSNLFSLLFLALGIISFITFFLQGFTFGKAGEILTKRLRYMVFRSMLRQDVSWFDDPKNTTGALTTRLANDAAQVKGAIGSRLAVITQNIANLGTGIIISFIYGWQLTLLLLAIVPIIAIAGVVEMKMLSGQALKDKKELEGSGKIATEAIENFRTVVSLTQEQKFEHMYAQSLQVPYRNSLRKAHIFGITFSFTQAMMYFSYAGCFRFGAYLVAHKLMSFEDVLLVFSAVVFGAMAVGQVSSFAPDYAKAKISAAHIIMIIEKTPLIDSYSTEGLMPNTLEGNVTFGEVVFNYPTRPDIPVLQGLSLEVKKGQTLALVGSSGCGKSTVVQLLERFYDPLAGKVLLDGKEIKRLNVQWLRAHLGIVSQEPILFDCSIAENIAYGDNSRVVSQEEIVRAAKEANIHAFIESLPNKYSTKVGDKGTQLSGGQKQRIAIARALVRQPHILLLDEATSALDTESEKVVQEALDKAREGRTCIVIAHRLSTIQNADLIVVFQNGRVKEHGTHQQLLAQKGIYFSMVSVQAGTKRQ

SMILES | GI50 ([1]; read-out: ED50) [nM] | other results
CN(C)c1ccc(-c2nc(-c3ccc(/C=C/C(=O)O)cc3)n(CCc3ccccc3)c2-c2ccc(N(C)C)cc2)cc1 | 20000 | –
CN(C)c1ccc(-c2nc(-c3ccc(C(=O)O)cc3)[nH]c2-c2ccc(N(C)C)cc2)cc1 | 60000 | –
CN(C)C/C=C/c1ccc(-c2nc(-c3ccc(N(C)C)cc3)c(-c3ccc(N(C)C)cc3)[nH]2)cc1 | 1300 | –
CN(C)c1ccc(-c2nc(-c3ccc(C(=O)O)cc3)n(CCc3ccccc3)c2-c2ccc(N(C)C)cc2)cc1 | 10000 | –
CN(C)c1ccc(-c2nc(-c3ccc(/C=C/C(=O)O)cc3)[nH]c2-c2ccc(N(C)C)cc2)cc1 | 10000 | –
CCN(CC)C(=O)OC/C=C/c1ccc(-c2nc(-c3ccc(N(C)C)cc3)c(-c3ccc(N(C)C)cc3)[nH]2)cc1 | – | GI50 [1]: 880 nM
COc1ccc(CCN(C)CCCC(C#N)(c2ccc(OC)c(OC)c2)C(C)C)cc1OC (stereo unspecified) | – | EC50 (NCI/ADR-RES [2]): 0.251 µg/mL; EC50 (MES-SA/Dx5 [3]): 2.5 µg/mL; EC50 (NCI/ADR-RES [4]): 2.5 µg/mL; EC50 (MES-SA/Dx5 [5]): 3 µg/mL
COCCCCc1ccc(-c2nc(-c3ccc(N(C)C)cc3)c(-c3ccc(N(C)C)cc3)[nH]2)cc1 | 1100 | –
CCCCOC/C=C/c1ccc(-c2nc(-c3ccc(N(C)C)cc3)c(-c3ccc(N(C)C)cc3)[nH]2)cc1 | – | GI50 [1]: 110 nM
CC(C)OC(=O)/C=C/c1ccc(-c2nc(-c3ccc(N(C)C)cc3)c(-c3ccc(N(C)C)cc3)[nH]2)cc1 | – | EC50 (NCI/ADR-RES [2]): 0.028 µg/mL; EC50 (MES-SA/Dx5 [3]): 0.13 µg/mL; EC50 (NCI/ADR-RES [4]): 0.15 µg/mL; EC50 (MES-SA/Dx5 [5]): 0.34 µg/mL
COC(=O)CCc1ccc(-c2nc(-c3ccc(N(C)C)cc3)c(-c3ccc(N(C)C)cc3)[nH]2)cc1 | 1000 | –
CN(C)c1ccc(-c2nc(-c3ccc(O)cc3)[nH]c2-c2ccc(N(C)C)cc2)cc1 | 5000 | –
CCCCCCn1c(-c2ccc(C(=O)OC)cc2)nc(-c2ccc(N(C)C)cc2)c1-c1ccc(N(C)C)cc1 | – | GI50 [1]: 6000 nM
CCCCCCn1c(-c2ccc(C(=O)O)cc2)nc(-c2ccc(N(C)C)cc2)c1-c1ccc(N(C)C)cc1 | 2000 | –

Continued by falling GI50 ([1]; read-out: ED50), values first:

GI50 ([1]; read-out: ED50) [nM] | SMILES | other results
1000 | CN(C)c1ccc(-c2nc(-c3ccc(O)cc3)n(CCc3ccccc3)c2-c2ccc(N(C)C)cc2)cc1 | –
600 | CN(C)c1ccc(-c2nc(-c3ccc(/C=C/C#N)cc3)[nH]c2-c2ccc(N(C)C)cc2)cc1 | –
600 | COC(=O)c1ccc(-c2nc(-c3ccc(N(C)C)cc3)c(-c3ccc(N(C)C)cc3)[nH]2)cc1 | –
480 | CCCCC(=O)OC/C=C/c1ccc(-c2nc(-c3ccc(N(C)C)cc3)c(-c3ccc(N(C)C)cc3)[nH]2)cc1 | –
450 | CN(C)c1ccc(-c2nc(-c3ccc(/C=C/COc4ccccc4)cc3)[nH]c2-c2ccc(N(C)C)cc2)cc1 | –
310 | COC(=O)C1CC1c1ccc(-c2nc(-c3ccc(N(C)C)cc3)c(-c3ccc(N(C)C)cc3)[nH]2)cc1 (stereo unspecified) | –
300 | COCCCc1ccc(-c2nc(-c3ccc(N(C)C)cc3)c(-c3ccc(N(C)C)cc3)[nH]2)cc1 | –
300 | COC(=O)/C=C/c1ccc(-c2nc(-c3ccc(N(C)C)cc3)c(-c3ccc(N(C)C)cc3)[nH]2)cc1 | –
300 | CN(C)c1ccc(-c2nc(-c3ccc(/C=C/COCc4ccccc4)cc3)[nH]c2-c2ccc(N(C)C)cc2)cc1 | –
130 | COC/C=C/c1ccc(-c2nc(-c3ccc(N(C)C)cc3)c(-c3ccc(N(C)C)cc3)[nH]2)cc1 | –
90 | COCCOC/C=C/c1ccc(-c2nc(-c3ccc(N(C)C)cc3)c(-c3ccc(N(C)C)cc3)[nH]2)cc1 | –
80 | CCOC/C=C/c1ccc(-c2nc(-c3ccc(N(C)C)cc3)c(-c3ccc(N(C)C)cc3)[nH]2)cc1 | EC50 (NCI/ADR-RES [6]): 0.036 µg/mL; EC50 (NCI/ADR-RES [7]): 0.01 µg/mL; EC50 (MES-SA/Dx5 [8]): 0.089 µg/mL; EC50 (MES-SA/Dx5 [9]): 0.024 µg/mL
